Assay results: patent publication US8278044B2, “Method for the identification of carcinogenic compounds” (priority 2008, dated 2012)

Experiments:
HepG2 cells [1] = assay: Flow cytometric analysis of cell cycle; type: cell-based, human; conditions: 3 μM BaP
Protocol: (§1) Two independent experiments were conducted.
(§2) Analyses of cell cycle profiles and apoptosis was performed as previously described using a FACSort (Becton Dickinson, Sunnyvale, USA) (29). For DNA content cells were stained with propidium iodide; apoptotic cells were visualised with the primary antibody M30 CytoDeath (Roche, Penzberg, Germany) and FITC conjugated anti-mouse Ig as secondary antibody (DakoCytomation, Glostrup, Denmark). For each sample 10,000 cells were analyzed. Cells in the G0-1, S or G2-M phase were expressed as a percentage of the total number of cells.

HepG2 cells [2] = assay: Flow cytometric analysis of apoptosis (M30 CytoDeath); type: cell-based; conditions: human, 3 μM
Protocol: as §1, §2

HepG2 cells [3] = assay: Gene expression analyses with DNA microarrays (Agilent), Reactome and T-profiler; type: cell-based, human; conditions: 3 μM BaP
Protocol: Labelling and hybridisation of RNA samples was done according to Agilent's manual for microarrays (Agilent Technologies, Breda, The Netherlands). […] For each biological experiment, two hybridizations per time point were conducted, with swapped Cy3 and Cy5 dyes.
The images (10 micron resolution; 16 bit tiff) were processed with ImaGene 6.0 to quantify spot signals (BioDiscovery Inc., Los Angeles, USA). Irregular spots were automatically flagged and excluded from data analysis. Data from ImaGene were further processed with GeneSight 4.1.6 (BioDiscovery Inc., Los Angeles, USA). For each spot, background was subtracted and flagged spots as well as spots with a net expression level below 20 in both channels were omitted. Data were log base 2 transformed and LOWESS normalized. If for a gene more probes were on the array, replicates were averaged while omitting outliers (>2 standard deviations). Raw data are available at ArrayExpress (accession numbers E-TOXM-22 and E-TOXM-23, for the first and second experiment respectively) (www.ebi.ac.uk/arrayexpress/).
Second, genes were selected by ANOVA using the plug-in “Time series analysis” from BRB Array Tools (version 3.4 and R version 2.2.0; linus.nci.nih.gov/BRB-ArrayTools.html) with “Time” as descriptor.
Reactome (www.reactome.org; Version 25, August 2008) (45) is used to examine the biological processes that may be affected at the level of reactions and reaction pathways, a level of detail that cannot be obtained by gene ontology annotations, and KEGG and BioCarta pathways. Reactions are grouped into causal chains to form pathways. […] The ratio of these number of differentially genes per event with total numbers present in the set of 2808 genes, are used for visualisation of affected pathways. Rctions were ordered by main pathway and sub-pathway.
T-profiler is used for functional annotation of pathways and processes in the complete data set of genes without pre-selecting modulated genes. T-profiler uses the unpaired t-test to score the difference between the mean expression level of predefined sets of genes and that of all other genes within the complete data set (46). […] Per experiment and time point t-values were determined for each gene set. Only gene sets with an absolute t-value>4 at at least 2 succeeding time points in both experiments were selected for further analyses.

SMILES: c1ccc2c(c1)cc1ccc3cccc4ccc2c1c34 [BaP, benzo[a]pyrene]
- duration of S-phase accumulation (HepG2 cells [1]): 6 to 18 h
- time after which cell cycle distribution becomes similar to that of the controls (HepG2 cells [1]): about 54 h
- S-phase cells (HepG2 cells [1]; at 18 h, concomitant decrease of cells in G1 and G2 phases): drastic increase
- apoptotic cells levels (HepG2 cells [2]): 0.5-3%
- POLR2A expression (TC-NER) (HepG2 cells [3]): upregulated at early time points
- POLR2D expression (TC-NER) (HepG2 cells [3]): downregulated at late time points
- base excision repair and global genomic repair pathways (HepG2 cells [3]): induced from 9/12 h until 60 h
- period of upregulation of DDB2 (GG-NER) (HepG2 cells [3]): 9 to 60 h
- period of upregulation of GC-NER (global genomic NER) reaction pathway (HepG2 cells [3]): 9 to 60 h
- period of upregulation of TC-NER reaction pathway (HepG2 cells [3]): 9 to 42 h
